Experimental data as given in US7737166B2, “Antifungal bicyclic hetero ring compounds” (Daiichi Sankyo Company, Limited, priority 2005, dated 2010).
Values after ≈ are worked out from the molar mass of the structure shown.

Assays:
Experiment in all cases: Antifungal activity (GI80), growth inhibition in YPD20 medium by absorbance at 600 nm
Assay type in all cases: cell-based
C. albicans ATCC90028 = settings: 37° C., absorbance 600 nm; for IC80: Candida albicans, ATCC90028, minimum concentration for at least 80% cell growth inhibition, read-out: GI80 (μg/ml) C. albicans ATCC90028; for GI80 (μg/ml) C. albicans ATCC90028: minimum concentration for at least 80% cell growth inhibition
Procedure: (§1) The antifungal activity of the compounds of the invention was determined according to the method mentioned below.
(§2) An YPD20 medium (1% yeast extract, 2% peptone, 20% glucose) was used,
(§3) (2) Preparation of Cell Liquid for Inoculation:
(§4) Cells incubated overnight with Sabouraud dextrose agar at 30° C. were suspended in 0.1% Tween 80-added saline, and then added to a concentrated medium (1.33% yeast extract, 2.67% peptone, 13.33% glucose) so that the final cell concentration could be 5×10^3 cells/ml, thereby preparing a cell liquid for inoculation.
(§5) (3) Production of Chemical Dilution Plate:
(§6) A metered sample was dissolved in dimethyl sulfoxide, and a 2-fold dilution series was prepared using dimethyl sulfoxide. A chemical dilution of 2 μl each was added to a flat-bottom 96-well plate with 40% glucose (48 μl) put in each well, thereby producing a chemical dilution plate.
(§7) (4) Inoculation and Cultivation of Cell Liquid:
(§8) The cell liquid (150 μl) prepared in (2) was added to the chemical dilution plate produced in (3), followed by aerobic static cultivation at 37° C.
(§9) (5) Determination of Antifungal Activity (GI80 Value):
(§10) After cultivation for […], the plate was stirred, and its absorbance (600 nm) was measured. Based on the absorbance as the index, the minimum chemical concentration for at least 80% cell growth inhibition relative to the cell growth in the chemical-free well was computed as a GI80 value.

C. glabrata ATCC48435 = settings: 37° C., absorbance 600 nm; for IC80: Nakaseomyces glabratus, ATCC48435, minimum concentration for at least 80% cell growth inhibition, read-out: GI80 (μg/ml) C. glabrata ATCC48435; for GI80 (μg/ml) C. glabrata ATCC48435: minimum concentration for at least 80% cell growth inhibition
Procedure: as §1, §2, §3, §4, §5, §6, §7, §8, §9, §10

C. albicans ATCC MYA-573 = settings: minimum concentration for at least 80% cell growth inhibition, 37° C., absorbance 600 nm; for IC80: Candida albicans, read-out: GI80 (μg/ml) C. albicans ATCC MYA-573
Procedure: as §1, §2, §3, §4, §5, §6, §7, §8, §9, §10

SMILES | IC80 (C. albicans ATCC90028) [µg/mL] | IC80 (C. glabrata ATCC48435) [µg/mL] | IC80 (C. albicans ATCC MYA-573) [µg/mL] | GI80 (μg/ml) C. albicans ATCC90028 (C. albicans ATCC90028) [µg/mL] | GI80 (μg/ml) C. glabrata ATCC48435 (C. glabrata ATCC48435) [µg/mL] | GI80 (μg/ml) C. albicans ATCC MYA-573 (C. albicans ATCC MYA-573) [µg/mL]
CN[C@H]1CCN(c2c(-c3cccc(Cl)c3)c(C)c(C#N)c3nc(C(=O)N(C)C)oc23)C1 [Example 146, 6-(3-Chlorophenyl)-4-cyano-N,N,5-trimethyl-7-[(3S)-3-(methylamino)pyrrolidin-1-yl]-1,3-benzoxazole-2-carboxamide] | 0.125 (≈ 0.285 µM) | 0.125 (≈ 0.285 µM) | 0.25 (≈ 0.571 µM) | – | – | –
CN[C@H]1CCN(c2c(-c3cccc(C)c3)c(C)c(C#N)c3nc(C(=O)N(C)C)oc23)C1 [Example 146-2, 4-Cyano-N,N,5-trimethyl-7-[(3S)-3-(methylamino)pyrrolidin-1-yl]-6-(3-methylphenyl)-1,3-benzoxazole-2-carboxamide] | 0.125 (≈ 0.299 µM) | 0.063 (≈ 0.151 µM) | 0.25 (≈ 0.599 µM) | – | – | –
CCOC(=O)[C@@H]1C[C@H]1c1nc2c(C#N)c(C)c(-c3ccccc3)c(N3CC[C@H](N(C)C)C3)c2o1 (relative stereo) [Example 112, Ethyl (1R*,2R*)-2-{4-cyano-7-[(3S)-3-(dimethylamino)pyrrolidin-1-yl]-5-methyl-6-phenyl-1,3-benzoxazol-2-yl}cyclopropanecarboxylate] | 0.032 (≈ 0.0698 µM) | 0.032 (≈ 0.0698 µM) | 0.063 (≈ 0.137 µM) | – | – | –
Cc1c(-c2ccccc2)c(N2CC[C@H](N(C)C)C2)c2oc(N3CCCC3=O)nc2c1C#N [Example 129] | – | – | – | 0.25 (≈ 0.582 µM) | 0.063 (≈ 0.147 µM) | 0.5 (≈ 1.16 µM)
Cc1c(-c2cc(F)ccc2F)c(N2CC[C@H](N(C)C)C2)c2oc(C3CC3)nc2c1C#N [Example 144-5, 2-Cyclopropyl-6-(2,5-difluorophenyl)-7-[(3S)-3-(dimethylamino)pyrrolidin-1-yl]-5-methyl-1,3-benzoxazole-4-carbonitrile] | 0.125 (≈ 0.296 µM) | 0.032 (≈ 0.0757 µM) | 0.25 (≈ 0.592 µM) | – | – | –
Cc1c(-c2ccccc2)c(N2CC[C@H](N(C)C)C2)c2oc(N3CC(C(=O)O)C3)nc2c1C#N [Example 67, 1-{4-Cyano-7-[(3S)-3-(dimethylamino)pyrrolidin-1-yl]-5-methyl-6-phenyl-1,3-benzoxazol-2-yl}-azetidine-3-carboxylic acid] | > 4 | 0.25 (≈ 0.561 µM) | > 4 | – | – | –
CC(=O)NC1CN(c2nc3c(C#N)c(C)c(-c4ccccc4)c(N4CC[C@H](N(C)C)C4)c3o2)C1 [Example 126] | – | – | – | 0.5 (≈ 1.09 µM) | 0.125 (≈ 0.273 µM) | 0.5 (≈ 1.09 µM)
CN[C@H]1CCN(c2c(-c3ccccc3)c(C)c(C#N)c3nc(C(=O)N(C)CCF)oc23)C1 [Example 134, 4-Cyano-N-(2-fluoroethyl)-N,5-dimethyl-7-[(3S)-3-(methylamino)pyrrolidin-1-yl]-6-phenyl-1,3-benzoxazole-2-carboxamide] | 0.5 (≈ 1.15 µM) | 0.125 (≈ 0.287 µM) | 0.5 (≈ 1.15 µM) | – | – | –
CN[C@H]1CCN(c2c(-c3cccs3)c(C)c(C#N)c3nc(C(=O)N(C)C)oc23)C1 [Example 145, 4-Cyano-N,N,5-trimethyl-7-[(3S)-3-(methylamino)pyrrolidin-1-yl]-6-(thiophen-2-yl)-1,3-benzoxazole-2-carboxamide] | 0.5 (≈ 1.22 µM) | 0.125 (≈ 0.305 µM) | 0.5 (≈ 1.22 µM) | – | – | –
Cc1c(-c2cccc(F)c2F)c(N2CC[C@H](N(C)C)C2)c2oc(C3CC3)nc2c1C#N [Example 83, 2-Cyclopropyl-6-(2,3-difluorophenyl)-7-[(3S)-3-(dimethylamino)pyrrolidin-1-yl]-5-methyl-1,3-benzoxazole-4-carbonitrile] | 0.5 (≈ 1.18 µM) | 0.125 (≈ 0.296 µM) | 0.5 (≈ 1.18 µM) | – | – | –
Cc1c(-c2ccccc2)c(N2CC[C@H](N(C)C)C2)c2oc(N(C)Cc3ncn[nH]3)nc2c1C#N [Example 72, 7-[(3S)-3-(Dimethylamino)pyrrolidin-1-yl]-5-methyl-2-[methyl(1H-1,2,4-triazol-5-ylmethyl)amino]-6-phenyl-1,3-benzoxazole-4-carbonitrile] | 0.5 (≈ 1.1 µM) | 0.125 (≈ 0.274 µM) | 0.5 (≈ 1.1 µM) | – | – | –
